This is an account of results in US12486290B2, “Isoindolinone and indazole compounds for the degradation of EGFR” (C4 THERAPEUTICS, INC., priority 2019, dated 2025).

For orientation: DC50 means the concentration at which degradation of the target reaches its halfway point.

Common to all, as to assay type: cell-based
Assay [1] deals with T1, EGFR T790M/L858R (NCI-H1975 cells) (Homo sapiens, UniProt P00533, L858R/T790M).
T1 construct: NCI-H1975 (harboring EGFR heterozygous T790M/L858R mutations); host or cells: NCI-H1975
T1 sequence (P00533 25-1210 T790M/L858R): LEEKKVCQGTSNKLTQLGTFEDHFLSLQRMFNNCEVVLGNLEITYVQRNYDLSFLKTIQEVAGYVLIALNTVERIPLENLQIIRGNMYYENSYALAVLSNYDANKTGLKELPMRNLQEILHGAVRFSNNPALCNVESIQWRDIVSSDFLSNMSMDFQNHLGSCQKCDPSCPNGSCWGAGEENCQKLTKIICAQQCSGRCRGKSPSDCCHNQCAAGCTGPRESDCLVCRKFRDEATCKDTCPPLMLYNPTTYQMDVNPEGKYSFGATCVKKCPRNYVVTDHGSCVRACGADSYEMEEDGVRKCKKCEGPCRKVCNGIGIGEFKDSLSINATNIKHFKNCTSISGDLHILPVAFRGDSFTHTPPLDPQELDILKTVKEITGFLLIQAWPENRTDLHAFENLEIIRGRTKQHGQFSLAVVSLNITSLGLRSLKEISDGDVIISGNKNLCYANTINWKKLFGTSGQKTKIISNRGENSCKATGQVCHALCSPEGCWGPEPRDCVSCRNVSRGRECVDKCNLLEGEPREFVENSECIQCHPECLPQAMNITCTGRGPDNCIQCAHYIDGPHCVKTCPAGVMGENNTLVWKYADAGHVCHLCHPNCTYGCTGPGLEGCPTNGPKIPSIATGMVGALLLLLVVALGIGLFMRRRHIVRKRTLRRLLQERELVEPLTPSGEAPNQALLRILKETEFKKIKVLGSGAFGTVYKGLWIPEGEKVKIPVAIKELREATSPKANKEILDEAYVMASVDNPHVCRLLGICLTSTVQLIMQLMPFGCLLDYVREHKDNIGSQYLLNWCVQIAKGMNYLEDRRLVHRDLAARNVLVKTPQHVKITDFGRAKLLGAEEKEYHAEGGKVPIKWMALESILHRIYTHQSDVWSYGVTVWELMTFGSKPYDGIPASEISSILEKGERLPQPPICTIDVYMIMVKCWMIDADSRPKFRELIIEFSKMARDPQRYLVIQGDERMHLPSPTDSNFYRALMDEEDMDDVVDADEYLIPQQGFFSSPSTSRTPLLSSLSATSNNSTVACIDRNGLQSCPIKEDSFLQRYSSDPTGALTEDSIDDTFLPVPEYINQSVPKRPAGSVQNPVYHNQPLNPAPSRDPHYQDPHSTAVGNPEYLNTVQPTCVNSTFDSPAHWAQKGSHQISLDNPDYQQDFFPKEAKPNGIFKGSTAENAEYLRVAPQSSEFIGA
The assay can be described thus: EGFR (L858R) degradation analysis, Total EGFR (L858R) HTRF, NCI-H1975 cells. To be noted: 6 hours. The procedure, abridged: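 Cells (10000/well NCI-H1975 and NCI-H1975+CS, 1000/well NCI-H3255) treated with 11-point half-log titrations from 10 μM top, in duplicate, for 6 hours at 37° C., 5% CO2. Total EGFR (L858R) quantified by HTRF FRET; untreated cells as negative and cell-free wells as positive control.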
Background: TR-FRET usually uses a lanthanide donor and a delayed reading to cut background.

The target of assay [2] is T2, EGFR L858R (NCI-H3255 cells) (Homo sapiens, UniProt P00533, L858R).
T2 construct: NCI-H3255 (harboring EGFR heterozygous L858R mutation); host or cells: NCI-H3255
T2 sequence (P00533 25-1210 L858R): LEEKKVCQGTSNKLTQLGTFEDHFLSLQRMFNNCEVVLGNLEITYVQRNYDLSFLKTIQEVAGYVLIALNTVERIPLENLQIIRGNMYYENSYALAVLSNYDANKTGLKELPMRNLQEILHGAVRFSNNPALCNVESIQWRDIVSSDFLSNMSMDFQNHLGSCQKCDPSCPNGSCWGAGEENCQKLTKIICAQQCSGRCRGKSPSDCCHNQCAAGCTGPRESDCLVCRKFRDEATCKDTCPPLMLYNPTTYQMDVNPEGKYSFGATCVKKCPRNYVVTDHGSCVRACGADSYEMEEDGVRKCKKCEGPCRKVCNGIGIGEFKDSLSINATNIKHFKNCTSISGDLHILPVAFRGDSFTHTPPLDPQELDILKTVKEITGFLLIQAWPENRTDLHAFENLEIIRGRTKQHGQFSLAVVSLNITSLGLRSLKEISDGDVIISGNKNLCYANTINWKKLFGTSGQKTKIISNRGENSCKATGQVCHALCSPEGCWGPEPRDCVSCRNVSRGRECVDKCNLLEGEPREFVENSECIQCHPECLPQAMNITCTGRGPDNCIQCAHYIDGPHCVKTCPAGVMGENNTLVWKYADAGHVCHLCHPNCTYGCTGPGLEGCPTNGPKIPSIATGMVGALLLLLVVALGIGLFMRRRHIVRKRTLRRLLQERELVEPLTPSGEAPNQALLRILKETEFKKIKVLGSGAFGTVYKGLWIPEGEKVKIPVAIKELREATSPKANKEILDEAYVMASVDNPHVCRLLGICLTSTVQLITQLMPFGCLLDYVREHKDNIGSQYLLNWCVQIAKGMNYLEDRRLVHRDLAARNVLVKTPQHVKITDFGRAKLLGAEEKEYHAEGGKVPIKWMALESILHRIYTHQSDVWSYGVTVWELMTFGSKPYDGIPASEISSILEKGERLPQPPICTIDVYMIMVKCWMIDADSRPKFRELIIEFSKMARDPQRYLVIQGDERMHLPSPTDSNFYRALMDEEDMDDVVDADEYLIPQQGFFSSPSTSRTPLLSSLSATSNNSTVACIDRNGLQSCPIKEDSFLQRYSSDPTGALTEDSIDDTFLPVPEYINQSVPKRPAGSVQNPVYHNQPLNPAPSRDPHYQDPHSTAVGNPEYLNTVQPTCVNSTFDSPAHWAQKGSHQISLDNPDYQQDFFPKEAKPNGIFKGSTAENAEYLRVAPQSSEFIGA
Description: EGFR (L858R) degradation analysis, Total EGFR (L858R) HTRF, NCI-H3255 cells. To be noted: 6 hours. The source says:
(§1) NCI-H1975 (harboring EGFR heterozygous T790M/L858R mutations) and NCI-H3255 (harboring EGFR heterozygous L858R mutation) were purchased from ATCC and NCI, respectively. NCI-H1975+CS (harboring EGFR heterozygous T/790M/L858R/C797S mutations) was generated using CRISPR technology to introduce the additional C797S mutation by Horizon Discovery. RPMI 1640 no-phenol red medium and fetal bovine serum (FBS) were purchased from Gibco (Grand Island, NY, USA). Cell culture flasks and 384-well microplates were acquired from VWR (Radnor, PA, USA). Total EGFR (L858R) HTRF assay kits were purchased from Cisbio (Bedford, MA, USA).
(§2) Degradation of EGFR protein containing L858R mutation was determined based on quantification of FRET signal using Total EGFR (L858R) HTRF assay kit. Test compounds were added to the 384-well plate from a top concentration of 10 μM with 11 points, half log titration in duplicates. NCI-H1975, NCI-H1975+CS or NCI-H3255 cells were added into 384-well plates at a cell density of 10000, 10000 or 1000 cells per well, respectively. The plates were kept at 37° C. with 5% CO2 for 6 hours. Cells treated in the absence of the test compound were the negative control. Positive control was set by wells containing all reagents but no cells. FRET signal was acquired on EnVision™ Multilabel Reader (PerkinElmer, Santa Clara, CA, USA).

Assay [3] concerns the target T3, EGFR T790M/L858R/C797S (NCI-H1975+CS cells) (Homo sapiens, UniProt P00533, C797S/L858R/T790M).
T3 construct: NCI-H1975+CS (harboring EGFR heterozygous T/790M/L858R/C797S mutations) was generated using CRISPR technology; host or cells: NCI-H1975+CS (CRISPR-edited NCI-H1975)
Description: EGFR (L858R) degradation analysis, Total EGFR (L858R) HTRF, NCI-H1975+CS cells. To be noted: 6 hours, read-out: H1975 C797S clone EGFR DC50.
Text: as §1, §2

T3 sequence (P00533 25-1210 T790M/C797S/L858R): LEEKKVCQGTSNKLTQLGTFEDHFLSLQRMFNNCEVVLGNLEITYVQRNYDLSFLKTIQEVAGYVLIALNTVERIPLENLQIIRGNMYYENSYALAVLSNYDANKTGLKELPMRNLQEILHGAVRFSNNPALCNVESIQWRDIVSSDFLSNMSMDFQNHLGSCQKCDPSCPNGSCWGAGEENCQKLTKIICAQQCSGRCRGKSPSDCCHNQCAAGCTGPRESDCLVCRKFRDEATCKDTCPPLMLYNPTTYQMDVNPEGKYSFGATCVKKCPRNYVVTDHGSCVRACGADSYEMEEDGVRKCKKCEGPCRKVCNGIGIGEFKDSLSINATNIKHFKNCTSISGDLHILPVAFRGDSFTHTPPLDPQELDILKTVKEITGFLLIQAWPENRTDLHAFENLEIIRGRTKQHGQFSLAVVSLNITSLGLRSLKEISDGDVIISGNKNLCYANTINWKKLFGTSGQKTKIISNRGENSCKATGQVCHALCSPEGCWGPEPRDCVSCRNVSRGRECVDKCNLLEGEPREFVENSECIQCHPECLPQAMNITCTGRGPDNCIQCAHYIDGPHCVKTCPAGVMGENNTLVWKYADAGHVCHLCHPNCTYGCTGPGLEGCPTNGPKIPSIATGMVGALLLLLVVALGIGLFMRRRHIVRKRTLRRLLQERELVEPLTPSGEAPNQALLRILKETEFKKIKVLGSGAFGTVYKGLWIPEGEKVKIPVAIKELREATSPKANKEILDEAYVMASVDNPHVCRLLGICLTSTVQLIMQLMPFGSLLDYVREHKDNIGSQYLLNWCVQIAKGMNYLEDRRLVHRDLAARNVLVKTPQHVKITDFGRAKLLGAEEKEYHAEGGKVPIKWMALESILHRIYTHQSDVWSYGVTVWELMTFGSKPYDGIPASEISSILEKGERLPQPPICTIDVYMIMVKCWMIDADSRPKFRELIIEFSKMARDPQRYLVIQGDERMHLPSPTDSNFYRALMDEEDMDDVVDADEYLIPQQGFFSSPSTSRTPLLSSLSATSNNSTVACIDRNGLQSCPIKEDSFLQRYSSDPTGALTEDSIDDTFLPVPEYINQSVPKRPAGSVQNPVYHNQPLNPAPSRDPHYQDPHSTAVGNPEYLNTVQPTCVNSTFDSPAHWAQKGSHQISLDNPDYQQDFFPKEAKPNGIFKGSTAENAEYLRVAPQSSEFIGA

On to `O=C1CCC(Nc2ccc(C3CCN(CC(=O)N4CC5(C4)CN(c4ccc(-c6cc(F)c7c(c6)C(=O)N(C(C(=O)Nc6nccs6)c6ncn8c6CCC8)C7)cc4)C5)CC3)cc2)C(=O)N1` (stereo not shown) [Compound 47, 2-(6,7-dihydro-5H-pyrrolo[1,2-c]imidazol-1-yl)-2-[6-[4-[2-[2-[4-[4-[(2,6-dioxo-3-piperidyl)amino]phenyl]-1-piperidyl]acetyl]-2,6-diazaspiro[3.3]heptan-6-yl]phenyl]-4-fluoro-1-oxo-isoindolin-2-yl]-N-thiazol-2-yl-acetamide], for which the results for the DC50 in assay [1], in assay [2] and in assay [3] were 18 nM, 10 nM and 9 nM, respectively.
On the same counts, the results for `O=C1CC[C@@H](Nc2ccc(C3CCN(CC(=O)N4CCC(Oc5ccc(-c6cc(F)c7c(c6)C(=O)N(C(C(=O)Nc6nccs6)c6ncn8c6CCC8)C7)cc5)CC4)CC3)cc2)C(=O)N1` (stereo partly drawn) [Compound 33, 2-(6,7-dihydro-5H-pyrrolo[1,2-c]imidazol-1-yl)-2-[6-[4-[[1-[2-[4-[4-[[(3R)-2,6-dioxo-3-piperidyl]amino]phenyl]-1-piperidyl]acetyl]-4-piperidyl]oxy]phenyl]-4-fluoro-1-oxo-isoindolin-2-yl]-N-thiazol-2-yl-acetamide] are 38 nM, 8 nM and 19 nM.
On the same counts, the results for `O=C1CCC(Nc2ccc(C3CCN(CC(=O)N4CCN(c5ccc(-c6cc(F)c7c(c6)C(=O)N(C(C(=O)Nc6ccccn6)c6ncn8c6CCC8)C7)cc5)CC4)CC3)cc2)C(=O)N1` (stereo not shown) [Compound 19, 2-(6,7-dihydro-5H-pyrrolo[1,2-c]imidazol-1-yl)-2-(6-(4-(4-(2-(4-(4-((2,6-dioxopiperidin-3-yl)amino)phenyl)piperidin-1-yl)acetyl)piperazin-1-yl)phenyl)-4-fluoro-1-oxoisoindolin-2-yl)-N-(pyridin-2-yl)acetamide] are 50 nM, 13 nM and 20 nM.
As for `O=C1CCC(Nc2ccc(C3CCN(C(=O)C(=O)N4CCC(Oc5ccc(-c6cc(F)c7c(c6)C(=O)N(C(C(=O)Nc6nccs6)c6ncn8c6CCC8)C7)cc5)CC4)CC3)cc2)C(=O)N1` (stereo not shown) [Compound 40, 2-(6,7-dihydro-5H-pyrrolo[1,2-c]imidazol-1-yl)-2-[6-[4-[[1-[2-[4-[4-[(2,6-dioxo-3-piperidyl)amino]phenyl]-1-piperidyl]-2-oxo-acetyl]-4-piperidyl]oxy]phenyl]-4-fluoro-1-oxo-isoindolin-2-yl]-N-thiazol-2-yl-acetamide], the DC50 in assay [1] was 21 nM; in assay [2], 14 nM.
Turning to `O=C1CC[C@H](Nc2ccc(C3CCN(CC(=O)N4CCC(n5cc(-c6cc(F)c7c(c6)C(=O)N(C(C(=O)Nc6nccs6)c6ncn8c6CCC8)C7)nn5)CC4)CC3)cc2)C(=O)N1` (stereo partly drawn) [Compound 30, 2-(6,7-dihydro-5H-pyrrolo[1,2-c]imidazol-1-yl)-2-(6-(1-(1-(2-(4-(4-(((S)-2,6-dioxopiperidin-3-yl)amino)phenyl)piperidin-1-yl)acetyl)piperidin-4-yl)-1H-1,2,3-triazol-4-yl)-4-fluoro-1-oxoisoindolin-2-yl)-N-(thiazol-2-yl)acetamide], the results for the DC50 in assay [1] and in assay [2] were 15 nM and 35 nM, respectively.
The matching figures for `O=C1CC[C@H](Nc2ccc(C3CCN(CC(=O)N4CCC(c5ccc(-c6cc(F)c7c(c6)C(=O)N(C(C(=O)Nc6nccs6)c6ncn8c6CCC8)C7)cc5)CC4)CC3)cc2)C(=O)N1` (stereo partly drawn) [Compound 22, 2-(6,7-dihydro-5H-pyrrolo[1,2-c]imidazol-1-yl)-2-(6-(4-(1-(2-(4-(4-(((S)-2,6-dioxopiperidin-3-yl)amino)phenyl)piperidin-1-yl)acetyl)piperidin-4-yl)phenyl)-4-fluoro-1-oxoisoindolin-2-yl)-N-(thiazol-2-yl)acetamide]: 31 nM and 15 nM.
On to `O=C1CC[C@H](Nc2ccc(C3CCN(CC(=O)N4CCC(NC(=O)c5ccc(C#Cc6cc(F)c7c(c6)C(=O)N(C(C(=O)Nc6nccs6)c6ncn8c6CCC8)C7)cn5)CC4)CC3)c(F)c2)C(=O)N1` (stereo partly drawn) [Compound 4, 5-[2-[2-[1-(6,7-dihydro-5H-pyrrolo[1,2-c]imidazol-1-yl)-2-oxo-2-(thiazol-2-ylamino)ethyl]-7-fluoro-3-oxo-isoindolin-5-yl]ethynyl]-N-[1-[2-[4-[4-[[(3S)-2,6-dioxo-3-piperidyl]amino]-2-fluoro-phenyl]-1-piperidyl]acetyl]-4-piperidyl]pyridine-2-carboxamide], for which the results for the DC50 in assay [1] and in assay [2] were 10 nM and 9 nM, respectively.
`O=C1CCC(Nc2ccc(C3CCN(C(=O)CN4CCN(c5ccc(-c6cc(F)c7c(c6)C(=O)N(C(C(=O)Nc6nccs6)c6ncn8c6CCC8)C7)cc5)CC4)CC3)cc2)C(=O)N1` (stereo not shown) [Compound 10, 2-(6,7-dihydro-5H-pyrrolo[1,2-c]imidazol-1-yl)-2-(6-(4-(4-(2-(4-(4-((2,6-dioxopiperidin-3-yl)amino)phenyl)piperidin-1-yl)-2-oxoethyl)piperazin-1-yl)phenyl)-4-fluoro-1-oxoisoindolin-2-yl)-N-(thiazol-2-yl)acetamide]: the DC50 in assay [1] was found to be 21 nM; in assay [2], 19 nM.
The matching figures for `O=C1CC[C@H](Nc2ccc(C3CCN(CC(=O)N4CC5(C4)CN(c4ccc(-c6cc(F)c7c(c6)C(=O)N(C(C(=O)Nc6ccccn6)c6ncn8c6CCC8)C7)cc4)C5)CC3)c(F)c2)C(=O)N1` (stereo partly drawn) [Compound 53, 2-(6,7-dihydro-5H-pyrrolo[1,2-c]imidazol-1-yl)-2-[6-[4-[2-[2-[4-[4-[[(3S)-2,6-dioxo-3-piperidyl]amino]-2-fluoro-phenyl]-1-piperidyl]acetyl]-2,6-diazaspiro[3.3]heptan-6-yl]phenyl]-4-fluoro-1-oxo-isoindolin-2-yl]-N-(2-pyridyl)acetamide]: 64 nM and 37 nM.
Regarding `O=C1CC[C@H](Nc2ccc(C3CCN(CC(=O)N4CCN(c5ccc(-c6cc(F)c7c(c6)C(=O)N(C(C(=O)Nc6nccs6)c6ncn8c6CCC8)C7)cn5)CC4)CC3)c(F)c2)C(=O)N1` (stereo partly drawn) [Compound 27, 2-(6,7-dihydro-5H-pyrrolo[1,2-c]imidazol-1-yl)-2-[6-[6-[4-[2-[4-[4-[[(3S)-2,6-dioxo-3-piperidyl]amino]-2-fluoro-phenyl]-1-piperidyl]acetyl]piperazin-1-yl]-3-pyridyl]-4-fluoro-1-oxo-isoindolin-2-yl]-N-thiazol-2-yl-acetamide], the DC50 in assay [1] was determined as 36 nM; in assay [2] it was 20 nM.
On the same counts, the results for `O=C1CC[C@H](Nc2ccc(C3CCN(CC(=O)N4CCC(n5cc(-c6cc(F)c7c(c6)C(=O)N(C(C(=O)Nc6nccs6)c6ncn8c6CCC8)C7)cn5)CC4)CC3)cc2)C(=O)N1` (stereo partly drawn) [Compound 28, 2-(6,7-dihydro-5H-pyrrolo[1,2-c]imidazol-1-yl)-2-[6-[1-[1-[2-[4-[4-[[(3S)-2,6-dioxo-3-piperidyl]amino]phenyl]-1-piperidyl]acetyl]-4-piperidyl]pyrazol-4-yl]-4-fluoro-1-oxo-isoindolin-2-yl]-N-thiazol-2-yl-acetamide] are 16 nM and 17 nM.
